Legend:
Type in all cases: in vivo, rat
[1] = system: Male Sprague-Dawley rats; assay: pQCT analysis of left and right femoral shafts at day 21, Groups K-R
Text: FIG. 10 (a-b) presents high resolution radiograms of the left and right femurs, respectively, from an additional series of experiments on additional groups of male Sprague-Dawley rats (6 rats per group) aged 9 weeks which were sacrificed and tested after 21 days (3 weeks). The various groups were subjected to the following treatment modalities: Group K—control day 0; Group L—control day 21; Group M—bone marrow ablation (bmx) day 0; Group N—sham day 21; Group O— bmx+phosphate buffer saline (PBS) daily for 21 days; Group P—bmx+PTH[1-34]-NH2 daily for 21 days; Group Q—bmx+ parathyroid hormone related peptide (PTHRP) daily for 21 days; and Group R—bmx+rat α-calcitonin gene related peptide (CGRP) daily for 21 days;
FIG. 11 (a-d) are graphical representations of the results of Peripheral Quantitative Computerized Tomography (PQCT) analyses of, respectively, the left (ablated) and right (non-ablated) femoral shafts of the rats from Groups K-R (see description of FIG. 10). FIGS. 11(a) and 11(b) illustrate the trabecular bone density observed in, respectively the left and right femoral shafts at day 21; whereas, FIGS. 11(c) and 11(d) illustrate the total bone density of, respectively, the left and right femoral shafts at the same interval. The meanings of the abbreviations used in FIGS. 11(a-d) are identical to those described above with regard to FIG. 10. […] [+=p value<0.01 vs. sham; *=p value<0.01 vs. bmx+PTH; **=p value<0.01 vs. bmx+PTH; and #=p value<0.05 vs. PBS];
An additional series of experiments was thereafter carried out with additional groups of rats (K-R) in order to (1) measure the effect of additional bone anabolic agents, i.e., other than parathyroid hormone (PTH[1-34]-NH2) and calcitonin, as well as to compare the effect(s) achieved with such parathyroid hormone with those obtained with the use of alternate anabolic agents, including parathyroid hormone related peptide (PTHrP) and calcitonin gene related peptide (CGRP). As in the case of the analyses discussed above with regard to FIGS. 3-9, in the animals tested only the left femur underwent the bone marrow ablation (bmx) procedure, i.e., there was no ablation of the right femur. Thus, as noted above, any views of the right femur in the figures described below indicating bone marrow ablation (bmx) as a treatment modality should be taken to mean that such treatment was applied to the corresponding left femur. Further, as was additionally the case above, the samples described below with regard to FIGS. 10-13 were taken from the femur shafts, rather than the corresponding distal epiphysis as in the case of FIGS. 1 and 2. The figures discussed below depict the results of end-point studies wherein the measurements were taken only at the 21 day end-point.
FIG. 11 (a-d) graphically illustrates, by means of a bar graph, the improvements in trabecular bone density and, to some extent, total bone density, in the left femoral shaft of rats subjected to the treatment modalities described above with regard to FIG. 10 (a-b); that is, control day 0; bmx day 0; control day 21; sham day 21; bmx+PBS on day 21; bmx+PTH on day 21; bmx+PTHrP on day 21; and bmx+CGRP on day 21. Again, this is attributable that (only) the left femur was subjected to the bmx treatment, and thus was the only femur wherein the effects of such bmx treatment overlapped with that of the systemic treatment with the bone anabolic agent. […] In contrast to the values obtained for the left femur, no significant amount of bone was formed in the right femur, notwithstanding whether it is trabecular bone density or total bone density which is being measured. This lack of new bone is, furthermore, attributable to the fact that the right femur had not been subjected to the bone marrow ablation (bmx) treatment.

[2] = system: Male Sprague-Dawley rats; assay: High resolution radiograms of left and right femurs, Groups A-J; conditions: left femur with bmx, 21 days
Method: FIG. 3 (a-e) present high resolution radiograms of, respectively, the left (ablated) and right (non-ablated) femurs of some of the rats described with regard to FIGS. 1 and 2 above. (See discussion below of Tables 1 and 2) The radiographs were taken three weeks (i.e., 21 days) following commencement of treatment. The rats were treated as follows: (a) control (i.e., no surgery); (b) sham (i.e., surgery without marrow ablation); (c) mechanical bone marrow ablation (bmx)+phosphate buffer saline (PBS) administration daily for 21 days; (d) bmx followed by parathyroid hormone (PTH[1-34]-NH2) administered daily for 21 days; and (e) bmx followed by parathyroid hormone (PTH[1-34]-NH2) administered daily for 7 days and then salmon calcitonin given daily from days 7-21. A marking of bmx with regard to a right (non-ablated) femur means that
FIG. 3 presents a set of high resolution radiograms of the entire left and right femurs from rats taken from some of the groups A-J described above. In each of the views shown, the treatment modality is indicated in the lower left corner of the radiogram. The following abbreviations are used: Control=no surgery; Sham=surgery without any bone marrow ablation; BMX=bone marrow ablation; PBS=phosphate buffer saline; PTH=parathyroid hormone (PTH[1-34]-NH2); and CT= salmon calcitonin. […]

[3] = system: Male Sprague-Dawley rats; assay: Von Kossa stained sections of left femurs subjected to bmx; conditions: left femur with bmx, PTH daily for 21 days
Text: FIG. 8 illustrates sections (at 4× magnification) of undecalcified left femurs, subjected to bone marrow ablation (bmx), wherein the bone sections were stained with Von Kossa stain;
FIG. 8 provides views of stained and […] bone sections of the left femur of representative rats subjected to the following treatment modalities: Control day 0; Control day 21; Sham day 21; bmx day 0; bmx+PBS daily for 7 days; bmx+PBS daily for 14 days; bmx+PBS daily for 21 days; bmx+ parathyroid hormone (PTH[1-34]NH2) daily for 7 days; bmx+PTH daily for 14 days, and bmx+PTH daily for 21 days. […] These views provide substantial additional evidence of the efficacy of the method of the present invention.

[4] = ablated femur, day 21, agent daily for 21 days, Groups K-R
[5] = non-ablated femur, day 21, agent daily for 21 days, Groups K-R

## PTH[1-34]-NH2
[1]; [4]
  Left femoral shaft Total density mean: 1100.2 mg/mL
  Left femoral shaft Trabecular density mean: 540.7 mg/mL
[1]; bmx, day 21
  trabecular bone density of left femoral shaft, in words: significantly improved
[1]; [5]
  Right femoral shaft Total density mean: 899.5 mg/mL
  Right femoral shaft Trabecular density mean: 128.3 mg/mL
[2]
  bone growth on radiograms, in words: greatest bone growth
[3]
  bone growth within marrow cavity on stained sections, in words: greatest such increase
